Assay [1] is described as follows: Inhibition of SARS coronavirus papain-like protease expressed in Escherichia coli. Also noted: species or system Severe acute respiratory syndrome-related coronavirus.
In another assay the test system is SARS-CoV. Kind of assay: Antiviral activity against SARS coronavirus infected in african green monkey Vero E6 cells assessed as inhibition of viral replication after 48 hrs by luminescence assay. It is filed as functional, organism-based, Severe acute respiratory syndrome-related coronavirus.
Where [2] appears, read: Severe acute respiratory syndrome-related coronavirus, Vero, 48 h, read-out: EC50.

A value given as a limit tells only on which side of the number the result lay.

The IC50 is the concentration needed to halve the response being measured. By EC50 is commonly meant the concentration needed to bring the measured effect to its halfway point.

As for `COc1ccccc1CNC(=O)C1CCN([C@H](C)c2ccc3ccccc3c2)CC1`, in assay [1], 34.8 µM corresponded to half-maximal inhibition (IC50). Consider `COc1ccc(CNC(=O)C2CCN(C(C)c3ccc4ccccc4c3)CC2)cc1` (racemic), for which the IC50 in assay [1] is over 100 µM. With `COc1cccc(CNC(=O)C2CCN(Cc3cccc4ccccc34)CC2)c1`, in assay [1], half-maximal inhibition (IC50) required 30 µM. As for `COc1ccc(CNC(=O)C2CCN([C@H](C)c3cccc4ccccc34)CC2)cc1`, the EC50 with SARS-CoV (setting [2]) turned out to be 10.2 µM. Further, the IC50 in assay [1] came out at 0.34 µM. On to `C[C@H](c1cccc2ccccc12)N1CCC(C(=O)NCc2ccc3c(c2)OCO3)CC1`, for which the EC50 in the assay on SARS-CoV (setting [2]) came out at 9.1 µM. As to `O=C(NCc1ccc2c(c1)OCO2)C1CCN(Cc2cccc3ccccc23)CC1`, in assay [1], the IC50 is 45 µM. In turn, `O=C(NCc1ccc2c(c1)OCO2)C1CCN(Cc2ccc3ccccc3c2)CC1` returned an IC50 in assay [1] of 100 µM.

Consider `COc1ccc(CNC(=O)C2CCN(Cc3cccc4ccccc34)CC2)cc1`, for which, in the assay with SARS-CoV (vero), the EC50 entry was “Not Active”. Further, the IC50 in assay [1] worked out at 59.2 µM. Compound `COc1ccccc1CNC(=O)C1CCN(Cc2cccc3ccccc23)CC1` registered an IC50 in assay [1] of 116 µM. For `COc1cccc(CNC(=O)C2CCN([C@H](C)c3cccc4ccccc34)CC2)c1`, the EC50 in the assay with SARS-CoV (setting [2]) was 9.7 µM. The same compound had an IC50 in assay [1] of 0.34 µM.

With `COc1cccc(CNC(=O)C2CCN([C@@H](C)c3ccc4ccccc4c3)CC2)c1`, the EC50 in the assay on SARS-CoV (setting [2]) is over 25 µM. In addition, inhibition in assay [1] was half-maximal at 5.8 µM (IC50). As for `CC(C)(c1cccc2ccccc12)N1CCC(C(=O)NCc2ccc3c(c2)OCO3)CC1`, the IC50 in assay [1] was over 200 µM. As for `COc1ccccc1CNC(=O)C1CCN([C@H](C)c2cccc3ccccc23)CC1`, in the assay on SARS-CoV (setting [2]), the EC50 is 11.6 µM. This compound also gave an IC50 in assay [1] of 1.21 µM. `COc1cccc(CNC(=O)C2CCN([C@H](C)c3ccc4ccccc4c3)CC2)c1` returned a 50% inhibitory concentration (IC50) in assay [1] of 13.2 µM. Regarding `C[C@@H](c1cccc2ccccc12)N1CCC(C(=O)NCc2ccc3c(c2)OCO3)CC1`, the EC50 in the assay on SARS-CoV (setting [2]) came out at 9.1 µM. The same compound had an IC50 in assay [1] of 0.56 µM.

The values above are taken from ChEMBL document CHEMBL1177723, “Severe acute respiratory syndrome coronavirus papain-like novel protease inhibitors: design, synthesis, protein-ligand X-ray structure and biological evaluation” (J Med Chem, 2010).
